Measurements as given in ChEMBL document CHEMBL1909046, “DrugMatrix in vitro pharmacology data”.

Tests used:
B2 bradykinin receptor = molecular target: T1, B2 bradykinin receptor (Homo sapiens, UniProt P30411); format: cell membranes, Membrane; conditions: chem-1; further: in other assays of this panel Not Active means under 50% inhibition at 10 µM
T1 sequence (P30411 whole entry): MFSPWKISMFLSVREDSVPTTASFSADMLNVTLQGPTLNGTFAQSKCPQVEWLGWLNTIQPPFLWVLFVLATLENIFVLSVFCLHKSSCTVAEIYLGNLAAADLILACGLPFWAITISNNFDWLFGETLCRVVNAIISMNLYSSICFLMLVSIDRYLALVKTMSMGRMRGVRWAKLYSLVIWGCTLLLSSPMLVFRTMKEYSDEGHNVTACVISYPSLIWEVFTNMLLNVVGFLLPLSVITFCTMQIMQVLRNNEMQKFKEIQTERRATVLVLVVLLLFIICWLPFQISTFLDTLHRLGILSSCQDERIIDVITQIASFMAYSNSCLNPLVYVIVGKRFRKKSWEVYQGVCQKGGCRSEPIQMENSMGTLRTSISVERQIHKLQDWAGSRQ

[1] = molecular target: T2, Neuropeptide Y receptor type 1 (Homo sapiens, UniProt P25929); format: cell membranes, Membrane; conditions: sk-n-mc; further: in other assays of this panel Not Active means under 50% inhibition at 10 µM
T2 sequence (P25929 whole entry): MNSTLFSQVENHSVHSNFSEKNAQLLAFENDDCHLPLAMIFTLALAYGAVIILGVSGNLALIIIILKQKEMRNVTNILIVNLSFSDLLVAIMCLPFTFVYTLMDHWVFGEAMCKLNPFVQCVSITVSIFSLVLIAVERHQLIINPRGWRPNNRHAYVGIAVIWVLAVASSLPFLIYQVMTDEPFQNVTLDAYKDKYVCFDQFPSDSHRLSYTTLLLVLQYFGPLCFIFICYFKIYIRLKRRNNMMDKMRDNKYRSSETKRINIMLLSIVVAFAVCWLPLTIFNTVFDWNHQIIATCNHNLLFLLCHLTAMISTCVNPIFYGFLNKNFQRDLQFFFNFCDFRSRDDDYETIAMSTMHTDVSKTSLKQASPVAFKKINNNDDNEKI

Cannabinoid receptor 1 = Cannabinoid receptor 1 (Homo sapiens, UniProt P21554); format: cell membranes, Chem-1, Membrane; conditions: chem-1; further: in other assays of this panel Not Active means under 50% inhibition at 10 µM
Chain of Cannabinoid receptor 1 (P21554 whole entry): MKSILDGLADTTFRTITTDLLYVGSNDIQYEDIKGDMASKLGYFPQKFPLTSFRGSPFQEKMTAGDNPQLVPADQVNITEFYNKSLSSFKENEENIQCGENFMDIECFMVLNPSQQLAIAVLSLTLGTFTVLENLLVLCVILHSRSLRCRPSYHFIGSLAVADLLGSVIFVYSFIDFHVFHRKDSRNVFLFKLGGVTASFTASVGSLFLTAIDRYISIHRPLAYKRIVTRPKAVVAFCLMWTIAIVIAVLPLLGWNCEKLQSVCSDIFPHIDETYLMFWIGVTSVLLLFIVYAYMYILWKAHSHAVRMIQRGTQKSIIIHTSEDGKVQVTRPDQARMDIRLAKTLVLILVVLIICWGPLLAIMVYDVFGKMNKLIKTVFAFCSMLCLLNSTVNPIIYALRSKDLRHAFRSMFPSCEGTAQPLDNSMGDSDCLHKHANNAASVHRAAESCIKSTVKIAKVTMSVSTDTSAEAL

[2] = DRUGMATRIX: Phosphodiesterase PDE4 enzyme inhibition (substrate: [3H]cAMP + cAMP); conditions: u-937; Not Active = under 50% inhibition at 10 µM
[3] = DRUGMATRIX: Leukotriene, BLT (LTB4) radioligand binding (ligand: [3H]LTB4); format: cell membranes, Membrane; conditions: u-937; Not Active = under 50% inhibition at 10 µM
[4] = molecular target: cGMP-specific 3',5'-cyclic phosphodiesterase (Homo sapiens, UniProt O76074); experiment: DRUGMATRIX: Phosphodiesterase PDE5 enzyme inhibition (substrate: [3H]cGMP + cGMP); format: tissue-based, Platelet; conditions: platelet; Not Active = under 50% inhibition at 10 µM
[5] = DRUGMATRIX: Phosphodiesterase PDE3 enzyme inhibition (substrate: [3H]cAMP + cAMP); format: tissue-based, Homo sapiens; conditions: platelet, Not Active = under 50% inhibition at 10 µM

Row | SMILES | IC50 (B2 bradykinin receptor) | IC50 [1] | IC50 (Cannabinoid receptor 1) | IC50 [2] | Ki [2] | IC50 [3] | Ki [3] | IC50 [4] | IC50 [5] | Ki [5] | IC50 ([5]; read-out: IC50)
1 | Cc1ccc(S(=O)(=O)NC(=O)NN2CCCCCC2)cc1 [TOLAZAMIDE] | Not Active | Not Active | Not Active | Not Active | Not Active | Not Active | Not Active | Not Active | Not Active | Not Active | 
2 | Cc1ccc(Cl)c(Nc2ccccc2C(=O)O)c1Cl [MECLOFENAMIC ACID] | Not Active | Not Active | Not Active | Not Active | Not Active | Not Active | Not Active | Not Active | Not Active | Not Active | 
3 | CO[C@@H]1[C@@H](OC)[C@H](C)[C@@](O)(CC(=O)O)O[C@H]1[C@H](C)[C@H]1O[C@@]2(CC[C@@](C)([C@H]3CC[C@@](C)([C@@H]4O[C@@H]([C@H]5O[C@](C)(O)[C@H](C)C[C@@H]5C)C[C@@H]4O[C@@H]4C[C@H](OC)[C@@H](OC)[C@H](C)O4)O3)O2)C[C@H](O)[C@H]1C.N [MADURAMICIN] | Not Active | Not Active | Not Active | Not Active | Not Active | Not Active | Not Active | Not Active | Not Active | Not Active | 
4 | CCC(C)(C)C(=O)O[C@H]1C[C@@H](C)C=C2C=C[C@H](C)[C@H](CC[C@@H]3C[C@@H](O)CC(=O)O3)[C@H]21 [SIMVASTATIN] | Not Active | Not Active | Not Active | Not Active | Not Active | Not Active | Not Active | Not Active | Not Active | Not Active | 
5 | C#C[C@]1(O)CC[C@H]2[C@@H]3[C@H](C)CC4=C(CCC(=O)C4)[C@H]3CC[C@@]21C [TIBOLONE] | Not Active | Not Active | Not Active | Not Active | Not Active | Not Active | Not Active | Not Active | Not Active | Not Active | 
6 | Cc1nnc(NS(=O)(=O)c2ccc(N)cc2)s1 [SULFAMETHIZOLE] | Not Active | Not Active | Not Active | Not Active | Not Active | Not Active | Not Active | Not Active | Not Active | Not Active | 
7 | C[C@]12CCC(=O)C[C@@H]1CC[C@@H]1[C@@H]2CC[C@]2(C)[C@@H](O)CC[C@@H]12 [STANOLONE] | Not Active | Not Active | Not Active | Not Active | Not Active | Not Active | Not Active | Not Active | Not Active | Not Active | 
8 | CO[C@@]12[C@H](COC(N)=O)C3=C(C(=O)C(C)=C(N)C3=O)N1C[C@@H]1N[C@@H]12 [MITOMYCIN] | Not Active | Not Active | Not Active | Not Active | Not Active | Not Active | Not Active | Not Active | Not Active | Not Active | 
9 | Cc1[nH]c(=O)c(C#N)cc1-c1ccncc1 [MILRINONE] | Not Active | Not Active | Not Active | Not Active | Not Active | Not Active | Not Active | Not Active |  |  | 958 nM
10 | CC(Cl)(Cl)Cl [TRICHLOROETHANE] | Not Active | Not Active | Not Active | Not Active | Not Active | Not Active | Not Active | Not Active | Not Active | Not Active | 
11 | CC[C@H](C)C(=O)O[C@H]1CCC=C2C=C[C@H](C)[C@H](CC[C@@H]3C[C@@H](O)CC(=O)O3)[C@H]21 [MEVASTATIN] | Not Active | Not Active | Not Active | Not Active | Not Active | Not Active | Not Active | Not Active | Not Active | Not Active | 
12 | CC(=O)O[C@]1(C(C)=O)CC[C@H]2[C@@H]3C[C@H](C)C4=CC(=O)CC[C@]4(C)[C@H]3CC[C@@]21C [MEDROXYPROGESTERONE ACETATE] | Not Active | Not Active | Not Active | Not Active | Not Active | Not Active | Not Active | Not Active | Not Active | Not Active | 
13 | CC[C@@]1(O)C(=O)OCc2c1cc1n(c2=O)Cc2cc3c(CN(C)C)c(O)ccc3nc2-1 [TOPOTECAN] | Not Active | Not Active | Not Active | Not Active | Not Active | Not Active | Not Active | Not Active | Not Active | Not Active | 
14 | CC#C[C@]1(O)CC[C@H]2[C@@H]3CCC4=CC(=O)CCC4=C3[C@@H](c3ccc(N(C)C)cc3)C[C@@]21C [MIFEPRISTONE] | Not Active | Not Active | Not Active | Not Active | Not Active | Not Active | Not Active | Not Active | Not Active | Not Active | 
15 | Cc1cnc(NC(=O)C2=C(O)c3ccccc3S(=O)(=O)N2C)s1 [MELOXICAM] | Not Active | Not Active | Not Active | Not Active | Not Active | Not Active | Not Active | Not Active | Not Active | Not Active | 
16 | O=[As][O-].[Na+] [SODIUM ARSENITE] | Not Active | Not Active | Not Active | Not Active | Not Active | Not Active | Not Active | Not Active | Not Active | Not Active | 
17 | Cc1cccc(C)c1NC(=O)C(C)N (centres undefined) [TOCAINIDE] | Not Active | Not Active | Not Active | Not Active | Not Active | Not Active | Not Active | Not Active | Not Active | Not Active | 
18 | COC(=O)Nc1nc2ccc(C(=O)c3ccccc3)cc2[nH]1 [MEBENDAZOLE] | Not Active | Not Active | Not Active | Not Active | Not Active | Not Active | Not Active | Not Active | Not Active | Not Active | 
19 | CCOC(=O)C1=C(C)NC(C)=C(C(=O)OCC)C1c1ccccc1/C=C/C(=O)OC(C)(C)C [LACIDIPINE] | Not Active | Not Active | Not Active | Not Active | Not Active | Not Active | Not Active | Not Active | Not Active | Not Active | 
20 | CC[C@H](C)[C@@H](CO[C@@H](Cc1ccccc1)C(=O)N[C@@H](CCS(C)(=O)=O)C(=O)OC(C)C)NC[C@@H](N)CS | Not Active | Not Active | Not Active | Not Active | Not Active | Not Active | Not Active | Not Active | Not Active | Not Active | 
21 | O=C(c1ccccc1)c1ccc2n1CCC2C(=O)O (centres undefined) [KETOROLAC] | Not Active | Not Active | Not Active | Not Active | Not Active | Not Active | Not Active | Not Active | Not Active | Not Active | 
22 | O=C(O)c1cc(/N=N/c2ccc(S(=O)(=O)Nc3ccccn3)cc2)ccc1O [SULFASALAZINE] | Not Active | Not Active | Not Active | Not Active | Not Active | Not Active | Not Active | Not Active | Not Active | Not Active | 
23 | CC1(C)[C@H](C(=O)O)N2C(=O)C[C@H]2S1(=O)=O [SULBACTAM] | Not Active | Not Active | Not Active | Not Active | Not Active | Not Active | Not Active | Not Active | Not Active | Not Active | 
